Converted amounts (≈) assume the structure as drawn. Like-named read-outs stand apart in the source and are kept apart here. Some results are limits rather than exact numbers.

Series [1] is described as follows: solubility. As to conditions: 37: bromide salt; 20a, 20b: bromide salts.
Series [2] can be described thus: stability (air, light, water, chloride, storage). As to conditions: 37: bromide salt; 20a, 20b: bromide salts.
The subject of series [3] is Yersinia pestis. Description: microbe, parasite or virus in culture. Format: cell-based.
Series [4] concerns Alcaligenes xylosoxidans. The series is described as follows: Efficacy data MIC and MBC (Table 7). The series is classed as cell-based.
For series [5], the system named is Pseudomonas aeruginosa. Description: Efficacy data MIC and MBC (Table 7). Format: cell-based.
In series [6] the test system is Methicillin resistant Staphylococcus aureus (MRSA). Description: Efficacy data MIC and MBC (Table 7). Format: cell-based.
For series [7], the system named is Escherichia coli. The series is described as follows: Efficacy data MIC and MBC (Table 7). Format: cell-based.
Series [8] relates to Stenotrophomonas maltophilia. The series is described as follows: Efficacy data MIC and MBC (Table 7). As to conditions: isolate SM AH08. The series is classed as cell-based.
Series [9] deals with Pseudomonas aeruginosa.
Series [10] relates to S. aureus (ATCC 6538). Description: MIC test in LB broth comparing AgNO3 and complex 106. Details: key: +=growth; −=no growth. The series is classed as cell-based.
The subject of series [11] is Staphylococcus aureus. Format: cell-based. As to conditions: 0.5% solution, 20 μL on 6 mm filter paper disc, over night. As to the method: (§1) In this test, a filter paper disc of 6 mm diameter was soaked with 20 μL of a silver compound of known concentration, and placed over a lawn of an organism in the agar plate. The diameter of the area in which growth of the organism is inhibited by the test solution was measured after an over night incubation as a measure of the relative antimicrobial activity of the silver compounds. The test organisms were Escherichia coli, Staphylococcus aureus, and Pseudomonas aeruginosa.

Series [12] concerns Escherichia coli. The series is classed as cell-based. The following applies: 0.5% solution, 20 μL on 6 mm filter paper disc, over night. As to the method: as §1
Series [13] relates to Pseudomonas aeruginosa. The series is classed as cell-based. The following applies: 0.5% solution, 20 μL on 6 mm filter paper disc, over night. As to the method: as §1
Series [14] has as its system Escherichia coli.
Series [15] deals with E. coli (ATCC 8739). The series is described as follows: MIC test in LB broth comparing AgNO3 and complex 106. Format: cell-based. On the set-up: key: +=growth; −=no growth.
In series [16] the test system is P. aeruginosa (ATCC 9027). The description is as above. Details: key: +=growth; −=no growth. Format: cell-based.
In series [17] the test system is Staphylococcus aureus. The following applies: Day 1.
Setting [18] is: Day 1, supernatant undiluted (Ag: 103 1186, 105 1125, AgN03 3176).
Setting [19] is: Day 2, supernatant undiluted (Ag: 103 1186, 105 1125, AgN03 3176).
The mark [20] stands for this setting: Day 1, 1DF: AgNO3 1731.18, 106 1675.74 μg/mL.
The mark [21] stands for this setting: Day 1, 2DF: AgNO3 865.59, 106 837.87 μg/mL.
Where [22] appears, read: Day 1, 3DF: AgNO3 432.79, 106 418.94 μg/mL.
[23] abbreviates: Day 1, 4DF: AgNO3 216.40, 106 209.47 μg/mL.
Setting [24] is: Day 1, undiluted: AgNO3 0.50 wt/V % (3462.35 μg/mL), 106 1.38 wt/V % (3341.48 μg/mL).
Setting [25] is: Day 2, 1DF: AgNO3 1731.18, 106 1675.74 μg/mL.
[26] abbreviates: Day 2, 2DF: AgNO3 865.59, 106 837.87 μg/mL.
Setting [27] is: Day 2, 3DF: AgNO3 432.79, 106 418.94 μg/mL.
[28] abbreviates: Day 2, 4DF: AgNO3 216.40, 106 209.47 μg/mL.
The mark [29] stands for this setting: Day 2, undiluted: AgNO3 0.50 wt/V % (3462.35 μg/mL), 106 1.38 wt/V % (3341.48 μg/mL).

Regarding `OCCN1C=CN(CN2C=CN(CCO)C2)C1` [Formula 13], the “solubility in water / aqueous media” value in [1] is given as “water soluble”.
On to `CN1c2c(n(C)c(=O)n(C)c2=O)N(C)[CH]1[Ag][CH]1N(C)c2c(n(C)c(=O)n(C)c2=O)N1C` (stereo not shown) [Formula 97a], for which the stability in water entry in [2] was “stable in water for five days”.
For the compound `CC(C)Cc1ccc(C(C)C(=O)[O][Ag][c]2n(C)c3c(=O)n(C)c(=O)n(C)c3[n+]2C)cc1` (stereo not shown) [SCC1-IBU], the MBC in [3] (isolate YP1-1CO92-LCR-) stood at 2 mg/L; in series [4] (isolate AX 22), 2 mg/L; in series [4] (isolate AX RE05) it was 2 mg/L; in [5] (isolate PA 01-V) it was 6 mg/L; in series [5] (isolate PA HP3), 2 mg/L; in series [5] (isolate PA LF05), 1 mg/L. For the same compound, the MBC was 2 mg/L in series [5] (isolate PA M57-15); 2 mg/L in series [5] (isolate PA RR05); 4 mg/L in series [6] (isolate SA EH06); 6 mg/L in series [6] (isolate SA LL06); 0.5 mg/L in series [7] (isolate J53); >20 mg/L in [7] (isolate J53 + pMG101). Moreover, in series [8], the MBC turned out to be 2 mg/L. The MIC in series [3] (isolate YP1-1CO92-LCR-) is 0.5 mg/L; in series [4] (isolate AX 22) it was 0.5 mg/L; in series [4] (isolate AX RE05), 1 mg/L; in [5] (isolate PA 01-V), 2 mg/L; in [5] (isolate PA HP3), 0.25 mg/L; in series [5] (isolate PA LF05) it was 1 mg/L. Moreover, the MIC in series [5] (isolate PA M57-15) was 1 mg/L; in series [5] (isolate PA RR05), 0.25 mg/L; in series [6] (isolate SA EH06), 2 mg/L; in series [6] (isolate SA LL06), 2 mg/L; in series [7] (isolate J53), 0.5 mg/L; in series [7] (isolate J53 + pMG101), >20 mg/L. Besides, the MIC in series [8] was determined as 1 mg/L.
For the compound `CC(=O)[O][Ag][c]1n(C)c2c(=O)n(C)c(=O)n(C)c2[n+]1C` [SCC1], the MBC in series [3] (isolate YP1-1CO92-LCR-) worked out at 1 mg/L; in series [4] (isolate AX 22) it was 2 mg/L; in series [4] (isolate AX RE05), 8 mg/L; in [5] (isolate PA 01-V), 2 mg/L; in series [5] (isolate PA HP3) it was 8 mg/L; in series [5] (isolate PA LF05), 1 mg/L. Moreover, the MBC was 4 mg/L in [5] (isolate PA M57-15); 1 mg/L in series [5] (isolate PA RR05); 20 mg/L in series [6] (isolate SA EH06); 10 mg/L in [6] (isolate SA LL06); 1 mg/L in series [7] (isolate J53); >20 mg/L in series [7] (isolate J53 + pMG101). This compound yielded an MBC in series [8] of 8 mg/L. Also, the MIC came out at 0.5 mg/L in series [3] (isolate YP1-1CO92-LCR-); 0.5 mg/L in series [4] (isolate AX 22); 4 mg/L in series [4] (isolate AX RE05); 1 mg/L in [5] (isolate PA 01-V); 4 mg/L in [5] (isolate PA HP3); 1 mg/L in series [5] (isolate PA LF05). Further, the MIC is 2 mg/L in series [5] (isolate PA M57-15); 0.5 mg/L in [5] (isolate PA RR05); 6 mg/L in series [6] (isolate SA EH06); 8 mg/L in [6] (isolate SA LL06); 1 mg/L in [7] (isolate J53); >20 mg/L in [7] (isolate J53 + pMG101). This compound also yielded an MIC in series [8] of 4 mg/L.
Take `NC[C@H]1O[C@H](O[C@H]2[C@H](O)[C@@H](O[C@H]3O[C@H](CO)[C@@H](O)[C@H](N)[C@H]3O)[C@H](N)C[C@@H]2N)[C@H](N)C[C@@H]1O` [Tobramycin, reference compound]: the MBC in [3] (Yersinia pestis) was 0.25 mg/L (≈ 0.535 µM); in [4] (Achromobacter xylosoxidans, isolate AX 22, read-out: MBC), > 20 mg/L; in series [4] (isolate AX RE05), >20 mg/L; in [5] (Pseudomonas aeruginosa, isolate PA 01-V, read-out: MBC) it was > 20 mg/L; in series [5] (Pseudomonas aeruginosa, isolate PA HP3, read-out: MBC), 8 mg/L (≈ 17.1 µM); in series [5] (Pseudomonas aeruginosa, isolate PA LF05, read-out: MBC), 1 mg/L (≈ 2.14 µM). In addition, the MBC was 1 mg/L (≈ 2.14 µM) in [5] (Pseudomonas aeruginosa, isolate PA M57-15, read-out: MBC); 1 mg/L (≈ 2.14 µM) in [5] (Pseudomonas aeruginosa, isolate PA RR05, read-out: MBC); > 20 mg/L in series [6] (Staphylococcus aureus, MRSA, isolate SA LL06, read-out: MBC); >20 mg/L in series [6] (isolate SA EH06); 1 mg/L (≈ 2.14 µM) in [7] (Escherichia coli, isolate J53, read-out: MBC); 1 mg/L in [7] (isolate J53 + pMG101). The MBC in series [8] (Stenotrophomonas maltophilia, read-out: MBC) is 20 mg/L (≈ 42.8 µM). The MIC in series [3] (Yersinia pestis) was 0.25 mg/L (≈ 0.535 µM); in series [4] (Achromobacter xylosoxidans, isolate AX RE05, read-out: MIC), > 20 mg/L; in series [4] (Achromobacter xylosoxidans, isolate AX 22, read-out: MIC) it was 20 mg/L (≈ 42.8 µM); in [5] (Pseudomonas aeruginosa, isolate PA 01-V, read-out: MIC), 15 mg/L (≈ 32.1 µM); in series [5] (Pseudomonas aeruginosa, isolate PA HP3, read-out: MIC), 4 mg/L (≈ 8.56 µM); in [5] (Pseudomonas aeruginosa, isolate PA LF05, read-out: MIC), 0.5 mg/L (≈ 1.07 µM). In addition, the MIC in series [5] (Pseudomonas aeruginosa, isolate PA M57-15, read-out: MIC) was 0.5 mg/L (≈ 1.07 µM); in [5] (Pseudomonas aeruginosa, isolate PA RR05, read-out: MIC) it was 0.5 mg/L (≈ 1.07 µM); in series [6] (Staphylococcus aureus, MRSA, isolate SA LL06, read-out: MIC), > 20 mg/L; in [6] (isolate SA EH06), >20 mg/L; in [7] (Escherichia coli, isolate J53, read-out: MIC), 1 mg/L (≈ 2.14 µM); in [7] (isolate J53 + pMG101) it was 1 mg/L. The MIC in series [8] (Stenotrophomonas maltophilia, read-out: MIC) stood at 8 mg/L (≈ 17.1 µM).
As to “silver nitrate [AgNO3, reference compound]”, the “growth(+) or no growth(−)” value in [9] (setting [18]) is given as “−”; in series [9] (Day 1, supernatant x 1DF) it was “+”; in [9] (Day 1, supernatant x 2DF) it was “+”; in [9] (Day 1, supernatant x 3DF) it was “+”; in series [9] (Day 1, supernatant x 4DF), “+”; in [9] (setting [19]), “+”. The “growth(+) or no growth(−)” value in [14] (setting [18]) is reported as “−”; in [14] (Day 1, supernatant x 1DF) it was “+”; in [14] (Day 1, supernatant x 2DF) it was “+”; in series [14] (Day 1, supernatant x 3DF) it was “+”; in [14] (Day 1, supernatant x 4DF), “+”; in series [14] (setting [19]), “+”. Moreover, the “growth(+) or no growth(−)” value in series [17] (supernatant undiluted (Ag: 103 1186, 105 1125, AgN03 3176)) is given as “+”; in series [17] (supernatant x 1DF), “+”; in [17] (supernatant x 2DF) it was “+”; in [17] (supernatant x 3DF), “+”; in [17] (supernatant x 4DF), “+”. The “growth / no growth” value in [10] (setting [20]), in series [10] (setting [21]), in series [10] (setting [22]), in series [10] (setting [23]), in [10] (setting [24]) and in series [10] (setting [25]) was “−” each time. In addition, the “growth / no growth” value in series [10] (setting [26]) is “−”; in series [10] (setting [27]) it was “−”; in series [10] (setting [28]) it was “+”; in [10] (setting [29]), “−”; in [15] (setting [20]), “−”; in [15] (setting [21]), “−”. The “growth / no growth” value in [15] (setting [22]), in series [15] (setting [23]), in series [15] (setting [24]), in series [15] (setting [25]), in [15] (setting [26]) and in [15] (setting [27]) was “−” throughout. In addition, the “growth / no growth” value in [15] (setting [28]) is listed as “+”; in series [15] (setting [29]) it was “−”; in series [16] (setting [20]), “−”; in series [16] (setting [21]) it was “−”; in series [16] (setting [22]), “−”; in series [16] (setting [23]), “−”. In addition, the “growth / no growth” value in [16] (setting [24]), in series [16] (setting [25]), in [16] (setting [26]), in series [16] (setting [27]), in series [16] (setting [28]) and in [16] (setting [29]) was “−” in each case. In addition, the “Diameter of Inhibited Area” value in [11] is 10.88 mm; in [12], 11.38 mm; in series [13] it was 11 mm.
